Legend:
EGFR = EGFR (UniProt P00533)
CDK2 = CDK2 (UniProt P24941); experiment: Enzyme Assay

EGFR, sequence (P00533 whole entry, looked up): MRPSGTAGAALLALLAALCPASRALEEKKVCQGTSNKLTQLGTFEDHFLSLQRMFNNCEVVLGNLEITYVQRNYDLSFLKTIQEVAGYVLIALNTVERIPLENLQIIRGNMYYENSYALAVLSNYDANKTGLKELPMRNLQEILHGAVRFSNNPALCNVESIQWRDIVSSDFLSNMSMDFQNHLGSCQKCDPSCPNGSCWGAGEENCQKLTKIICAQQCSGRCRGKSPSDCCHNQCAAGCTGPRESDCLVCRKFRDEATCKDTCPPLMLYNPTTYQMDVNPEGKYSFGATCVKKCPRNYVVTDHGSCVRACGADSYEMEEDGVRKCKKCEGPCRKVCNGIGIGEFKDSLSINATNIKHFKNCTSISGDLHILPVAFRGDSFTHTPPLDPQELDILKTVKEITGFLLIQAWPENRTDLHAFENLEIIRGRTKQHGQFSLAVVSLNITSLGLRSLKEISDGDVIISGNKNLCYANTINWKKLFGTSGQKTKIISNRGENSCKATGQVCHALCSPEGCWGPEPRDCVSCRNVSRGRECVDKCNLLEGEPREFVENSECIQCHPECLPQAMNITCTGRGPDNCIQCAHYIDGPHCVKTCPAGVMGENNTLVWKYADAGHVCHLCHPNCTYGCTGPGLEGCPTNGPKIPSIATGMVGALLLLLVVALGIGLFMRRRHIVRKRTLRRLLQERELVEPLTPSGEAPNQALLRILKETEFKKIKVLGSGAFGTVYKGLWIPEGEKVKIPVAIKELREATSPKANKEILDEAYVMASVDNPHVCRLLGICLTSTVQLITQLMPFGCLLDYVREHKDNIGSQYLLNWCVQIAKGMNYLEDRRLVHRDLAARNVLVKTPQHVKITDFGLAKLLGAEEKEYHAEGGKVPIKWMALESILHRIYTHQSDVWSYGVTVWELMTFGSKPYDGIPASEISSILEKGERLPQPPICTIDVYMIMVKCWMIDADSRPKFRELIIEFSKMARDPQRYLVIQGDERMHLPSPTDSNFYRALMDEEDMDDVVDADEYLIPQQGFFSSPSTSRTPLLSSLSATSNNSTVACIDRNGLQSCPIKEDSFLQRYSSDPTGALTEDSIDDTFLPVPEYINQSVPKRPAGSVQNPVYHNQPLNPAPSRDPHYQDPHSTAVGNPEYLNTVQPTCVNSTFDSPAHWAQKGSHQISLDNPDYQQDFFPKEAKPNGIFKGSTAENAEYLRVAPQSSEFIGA

| SMILES | IC50 (EGFR) [µM] | IC50 (CDK2) [µM] |
| --- | --- | --- |
| Cc1nc(N2CCN(Cc3nccs3)CC2)nc2[nH]c(-c3c(NC[C@@H](O)c4cccc(Cl)c4)cc[nH]c3=O)nc12 | < 25 | < 25 |
| COc1ccc(C(O)CNc2cc[nH]c(=O)c2-c2nc3cnccc3[nH]2)cc1Br (configuration not stated) | < 25 | < 25 |
| Cc1nc(N2CCN(Cc3ccccn3)CC2)nc2[nH]c(-c3c(NC[C@@H](O)c4cccc(Cl)c4)cc[nH]c3=O)nc12 | < 25 | < 25 |
| Cc1nc(N2CCN(Cc3cccn3C)CC2)nc2[nH]c(-c3c(NC[C@@H](O)c4cccc(Cl)c4)cc[nH]c3=O)nc12 | < 25 | < 25 |
| Cc1nc(N2CCOCC2)nc2[nH]c(-c3c(NC[C@@H](O)c4cccc(Cl)c4)cc[nH]c3=O)nc12 | < 25 | < 25 |
| CCOC(=O)C1CC1CN1CCN(c2nc(C)c3nc(-c4c(NC[C@@H](O)c5cccc(Cl)c5)cc[nH]c4=O)[nH]c3n2)CC1 (some centres not stated) | < 25 | < 25 |
| Cc1nc(N2CCN(COCc3ccccc3)CC2)nc2[nH]c(-c3c(NC[C@@H](O)c4cccc(Cl)c4)cc[nH]c3=O)nc12 | < 25 | < 25 |
| Cc1nc(N2CCN(C(=O)OC(C)(C)C)CC2)nc2[nH]c(-c3c(NC[C@@H](O)c4cccc(Cl)c4)cc[nH]c3=O)nc12 | < 25 | < 25 |
| CCN1CCN(c2nc(C)c3nc(-c4c(NC[C@@H](O)c5cccc(Cl)c5)cc[nH]c4=O)[nH]c3n2)CC1 | < 25 | < 25 |

Results, then the compound that gave them:

| IC50 (EGFR) [µM] | IC50 (CDK2) [µM] | SMILES |
| --- | --- | --- |
| < 25 | < 25 | O=c1[nH]ccc(NC[C@@H](O)c2cccc(Br)c2)c1-c1nc2cc3cn[nH]c3cc2[nH]1 |
| < 25 | < 25 | Cc1nc(N2CCN(Cc3nccn3C)CC2)nc2[nH]c(-c3c(NC[C@@H](O)c4cccc(Cl)c4)cc[nH]c3=O)nc12 |
| < 25 | < 25 | O=c1[nH]ccc(NCC(O)c2cccc(Cl)c2)c1-c1nc2cnccc2[nH]1 (configuration not stated) |
| < 25 | < 25 | Cc1nc(N2CCN(CC3CC3)CC2)nc2[nH]c(-c3c(NC[C@@H](O)c4cccc(Cl)c4)cc[nH]c3=O)nc12 |
| < 25 | < 25 | O=c1[nH]ccc(NC[C@@H](O)c2cccc(Cl)c2)c1-c1nc2cc3cn[nH]c3cc2[nH]1 |
| < 25 | < 25 | Cc1nc(N2CCN(Cc3cccc(F)c3)CC2)nc2[nH]c(-c3c(NC[C@@H](O)c4cccc(Cl)c4)cc[nH]c3=O)nc12 |
| < 25 | < 25 | Cc1nc(N2CCNCC2)nc2[nH]c(-c3c(NC[C@@H](O)c4cccc(Cl)c4)cc[nH]c3=O)nc12 |
| < 25 | < 25 | Cc1nc(N2CCN(Cc3ncc[nH]3)CC2)nc2[nH]c(-c3c(NC[C@@H](O)c4cccc(Cl)c4)cc[nH]c3=O)nc12 |
| < 25 | < 25 | O=c1[nH]ccc(NCC(O)c2cccc(Br)c2)c1-c1nc2cnccc2[nH]1 (configuration not stated) |
| < 25 | < 25 | CCC(C)CN1CCN(c2nc(C)c3nc(-c4c(NC[C@@H](O)c5cccc(Cl)c5)cc[nH]c4=O)[nH]c3n2)CC1 (some centres not stated) |
| < 25 | < 25 | O=c1[nH]c2cc3nc(-c4c(NC[C@@H](O)c5cccc(Cl)c5)cc[nH]c4=O)[nH]c3cc2[nH]1 |
| < 25 | < 25 | COc1ccc([C@H](O)CNc2cc[nH]c(=O)c2-c2nc3cc4cn[nH]c4cc3[nH]2)cc1Br |

Reference: the Kinase Knowledgebase extract (Sharma et al. 2016)
